System: cells of cerebral cortex
Assay: Cytoprotective effect against glutamate induced cell death (MTT)
Assay type: cell-based, rats of Wister strain
Conditions: compound 1 μM added 24 h before 1 mM glutamate, fetal rat cerebral cortex cells, control group = 100%
Protocol: Biological Test 1: Cytoprotective Effect Against Glutamate Induced Cell Death
In accordance with the method of M. P. Mattoson [M. P. Mattoson, Brain Res. Rev., 13, 179 (1988)], brain of 18-days fetus rats of Wister strain were taken out. Then, cells of cerebral cortex (4×10^5 cells/ml) were seeded on poly-L-lysine coated 96 wells flat bottom plate (Sumitomo Bakelite Co., Ltd.) in concentration of 4×10^4 cells/each well. After 48 hours of incubation, 1 μM of test compounds were added, then after further 24 hours, 1 mM of glutamate were further added for inducing the cell injury. 12 hours after adding glutamate, MTT [3-(4,5-dimethylthiazol)-2,5-diphenyltetrazolium bromide] was added and incubated for 6 hours.
After incubation, 200 μl of dimethy sulfoxide was added to each wells, and the amounts of reduced MTT were calorimetrically analyzed by Micro ELISA Reader using 570 nm of main-wavelength and 650 nm of sub-wavelength.
The effect of the test compounds was determined as the survival rate of living cells (%) according to the following equation: Survival rate of living cells (%)=[(test compound group−glutamate treated group)÷(control group−glutamate treated group)]×100
That is, the survival rate of living cells after incubation of the control group was converted to 100%, and the survival data of living cells of the tested compounds was shown in Table II.

Row | SMILES | Survival Rate (%) (Compound: 1 μM)
1 | Cc1cc(OC(C)(C)C(=O)N(C)C2CCN(CC(=O)Nc3cc(Cl)c(N)cc3Cl)CC2)c(C)c(C)c1N [Compound 79, 2-(4-Amino-2,3,5-trimethylphenoxy)-2-methyl-N-[1-(2-(4-amino-2,5-dichloro)anilino-2-oxyethyl)-4-piperidinyl]-N-methylpropamide] | 79%
2 | Cc1cc(OC(C)(C)C(=O)NC2CCN(C/C=C/c3ccccc3)CC2)c(C)c(C)c1N [Compound 80, 2-(4-Amino-2,3,5-trimethylphenoxy)-2-methyl-N-[1-(3-phenyl-2-(E)-propenyl)-4-piperidinyl]propamide] | 99%
3 | Cc1cc(OC(C)(C)C(=O)NC2CCN(CC3(c4ccccc4)CC3)CC2)c(C)c(C)c1N [Compound 81, 2-(4-Amino-2,3,5-trimethylphenoxy)-2-methyl-N-[1-(1-phenyl-1-cyclopropane)methyl-4-piperidinyl]propamide] | 97%
4 | Cc1cc(OC(C)(C)C(=O)NC2CCN(CC(=O)Nc3ccccc3)CC2)c(C)c(C)c1N [Compound 82, 2-(4-Amino-2,3,5-trimethylphenoxy)-2-methyl-N-[1-(2-anilino-2-oxyethyl)-4-piperidinyl]propamide] | 149%
5 | Cc1cc(OC(C)C(=O)NC2CCN(CC(=O)Nc3ccccc3)CC2)c(C)c(C)c1N (stereo not drawn) [Compound 83, 2-(4-Amino-2,3,5-trimethylphenoxy)-N-[1-(2-anilino-2-oxyethyl)-4-piperidinyl]propamide] | 65%
6 | Cc1cc(OC(C)C(=O)NC2CCN(C/C=C/c3ccccc3)CC2)c(C)c(C)c1N (stereo not drawn) [Compound 84, 2-(4-Amino-2,3,5-trimethylphenoxy)-N-[1-(3-phenyl-2-(E)-propenyl)-4-piperidinyl]propamide] | 87%
7 | Cc1cc(OCC(=O)NC2CCN(CC(=O)Nc3ccccc3)CC2)c(C)c(C)c1N [Compound 85, 2-(4-Amino-2,3,5-trimethylphenoxy)-N-[1-(2-anilino-2-oxyethyl)-4-piperidinyl]acetamide] | 98%
8 | CCN(C(=O)C(C)Oc1cc(C)c(N)c(C)c1C)C1CCN(CC2(c3ccccc3)CC2)CC1 (stereo not drawn) [Compound 87, 2-(4-Amino-2,3,5-trimethylphenoxy)-N-ethyl-N-[1-(1-phenyl-1-cyclopropane)methyl-4-piperidinyl]propamide] | 81%
9 | CCN(C(=O)CNc1c(C)c(C)c(N)c(C)c1C)C1CCN(CC2(c3ccccc3)CC2)CC1 [Compound 88, 2-(4-Amino-2,3,5,6-tetramethylanilino)-N-ethyl-N-[1-(1-phenyl-1-cyclopropane)methyl-4-piperidinyl]acetamide] | 81%
10 | Cc1cc(OCC(=O)N(C)C2CCN(CC(=O)Nc3cc(Cl)c(N)cc3Cl)CC2)c(C)c(C)c1N [Compound 89, 2-(4-Amino-2,3,5-trimethylphenoxy)-N-[1-(2-(4-amino-2,5-dichloro)anilino-2-oxyethyl)-4-piperidinyl]-N-methylacetamide] | 126%
11 | Cc1cc(OC(C)C(=O)N(C)C2CCN(CC3(c4ccccc4)CC3)CC2)c(C)c(C)c1N (stereo not drawn) [Compound 90, 2-(4-Amino-2,3,5-trimethylphenoxy)-N-methyl-N-[1-(1-phenyl-1-cyclopropane)methyl-4-piperidinyl]propamide] | 149%
12 | Cc1c(C)c(OCC(=O)NC2CCN(CC(=O)Nc3ccccc3)CC2)c(Cl)c(C)c1N [Compound 91, 2-(4-Amino-2-chloro-3,5,6-trimethylphenoxy)-N-[1-(2-anilino-2-oxyethyl)-4-piperidinyl]acetamide] | 203%
13 | Cc1c(C)c(OCC(=O)N(C)C2CCN(CC(=O)Nc3cc(Cl)c(N)cc3Cl)CC2)c(Cl)c(C)c1N [Compound 92, 2-(4-Amino-2-chloro-3,5,6-trimethylphenoxy)-N-[1-(2-(4-amino-2,5-dichloro)anilino-2-oxyethyl)-4-piperidinyl]-N-methylacetamide] | 66%
14 | CCN(C(=O)COc1c(C)c(C)c(N)c(C)c1Cl)C1CCN(CC(=O)Nc2cc(C)c(O)cc2C)CC1 [Compound 93, 2-(4-Amino-2-chloro-3,5,6-trimethylphenoxy)-N-[1-(2-(2,5-dimethyl-4-hydroxy)anilino-2-oxyethyl)-4-piperidinyl]-N-ethylacetamide] | 171%
15 | Cc1cc(OCC(=O)NC2CCN(CC3(c4ccccc4)CC3)CC2)c(C)c(C)c1N [Compound 96, 2-(4-Amino-2,3,5-trimethylphenoxy)-N-[1-(1-phenyl-1-cyclopropane)methyl-4-piperidinyl]acetamide] | 91%
16 | Cc1cc(OCC(=O)NC2CCN(CCc3ccccc3)CC2)c(C)c(C)c1N [Compound 97, 2-(4-Amino-2,3,5-trimethylphenoxy)-N-(1-(2-phenethyl)-4-piperidinyl)acetamide] | 119%
17 | Cc1cc(OC(C)(C)C(=O)NC2CCN(CC(=O)Nc3c(C)cccc3C)CC2)c(C)c(C)c1N [Compound 98, 2-(4-Amino-2,3-5-trimethylphenoxy)-2-methyl-N-[1-(2-(2,6-dimethylanilino)-2-oxyethyl)-4-piperidinyl]propamide] | 120%
18 | Cc1cc(OC(C)(C)C(=O)NC2CCN(CC(=O)Nc3ccccc3C(C)(C)C)CC2)c(C)c(C)c1N [Compound 100, 2-(4-Amino-2,3,5-trimethylphenoxy)-2-methyl-N-[1-(2-(2-tert-butylanilino)-2-oxyethyl)-4-piperidinyl]propamide] | 138%
19 | Cc1cc(OC(C)C(=O)NC2CCN(CC3(c4ccccc4)CC3)CC2)c(C)c(C)c1N (stereo not drawn) [Compound 101, 2-(4-Amino-2,3,5-trimethylphenoxy)-N-[1-(1-phenyl-1-cyclopropane)methyl-4-piperidinyl]propamide] | 138%
20 | Cc1cc(OC(C)C(=O)NC2CCN(CC(=O)NC3(c4ccccc4)CC3)CC2)c(C)c(C)c1N (stereo not drawn) [Compound 102, 2-(4-Amino-2,3,5-trimethylphenoxy)-N-[1-(2-(1-phenylcyclopropyl)amino-2-oxyethyl)-4-piperidinyl]propamide] | 89%
21 | Cc1cc(OC(C)C(=O)N(C)C2CCN(CC(O)COc3ccccc3)CC2)c(C)c(C)c1N (stereo not drawn) [Compound 103, 2-(4-Amino-2,3,5-trimethylphenoxy)-N-methyl-N-[1-(2-hydroxy-3-phenoxy)propyl-4-piperidinyl]propamide] | 180%
22 | Cc1cc(NC(=O)CN2CCC(N(C)C(=O)C(C)(C)Oc3cc(C)c(N)c(C)c3C)CC2)c(C)cc1O [Compound 107, 2-(4-Amino-2,3,5-trimethylphenoxy)-2-methyl-N-[1-(2-(2,5-dimethyl-4-hydroxy)anilino-2-oxyethyl]-4-piperidinyl]-N-methylpropamide] | 227%
23 | Cc1c(C)c(NCC(=O)N(C)C2CCN(Cc3ccc(C(N)=O)cc3)CC2)c(C)c(C)c1N [Compound 116] | 59%
24 | Cc1c(C)c(N(C)CC(=O)N(C)C2CCN(CCc3ccccc3)CC2)c(C)c(C)c1N [Compound 120, 2-(4-Amino-2,3,5,6-tetramethyl-N-methylanilino)-N-methyl-N-[1-(2-phenethyl)-4-piperidinyl]acetamide] | 88%
25 | Cc1c(C)c(NC(C)C(=O)N(C)C2CCN(CC3CC3)CC2)c(C)c(C)c1N (stereo not drawn) [Compound 121, 2-(4-Amino-2,3,5,6-tetramethylanilino)-N-[1-(cyclopropylmethyl)-4-piperidinyl]-N-methylpropamide] | 82%
26 | Cc1cc(C)c(NCC(=O)N(C)C2CCN(CC(O)COc3ccccc3)CC2)c(C)c1N (stereo not drawn) [Compound 126, 2-(3-Amino-2,4,6-tirmethylanilino)-N-[1-(2-hydroxy-3-phenoxy)propyl-4-piperidinyl]-N-methylacetamide] | 47%

Same assay, conditions: compound 1 μM added 24 h before 1 mM glutamate, fetal rat cerebral cortex cells, control group = 100%, read-out: Survival Rate (%) (Compound: 1 μM)

Row | SMILES | viability at 1 µM
27 | Cc1cc(OCC(=O)NC2CCN(C/C=C/c3ccccc3)CC2)c(C)c(C)c1N [Compound 86, 2-(4-Amino-2,3,5-trimethylphenoxy)-N-[1-(3-phenyl-2-(E)-propenyl)-4-piperidinyl]acetamide] | 127%
28 | Cc1c(C)c(NCC(=O)N(C)C2CCN(Cc3ccccc3)CC2)c(C)c(C)c1N [Compound 110, 2-(4-Amino-2,3,5,6-tetramethylanilino)-N-(1-benzyl-4-piperidinyl]-N-methylacetamide] | 61%
29 | Cc1c(C)c(NCC(=O)N(C)C2CCN(Cc3ccncc3)CC2)c(C)c(C)c1N [Compound 114, 2-(4-Amino-2,3,5,6-tetramethylanilino)-N-methyl-N-[1-(4-pyridylmethyl)-4-piperidinyl]acetamide] | 50%
30 | Cc1cc(C)c(NCC(=O)N(C)C2CCN(C/C=C/c3ccccc3)CC2)c(C)c1N [Compound 125, 2-(3-Amino-2,4,6-trimethylanilino)-N-methyl-N-[1-(3-phenyl-2-(E)-propenyl)-4-piperidinyl]acetamide] | 52%

Reference: patent US7488738B2, “Aminophenoxyacetic acid derivatives and pharmaceutical composition containing thereof” (Asubio Pharma Co., Ltd., priority 1998, dated 2009)
